Source: patent publication US20260085058A1, “DEGRADERS OF SON OF SEVENLESS HOMOLOG 1” (H. LEE MOFFITT CANCER CENTER AND RESEARCH INSTITUTE, INC., priority 2022, published 2026)

Legend:
SW620 cells = experiment: Multiplexed quantitative global proteomics, specificity of SOS1 degradation; type: cell-based; conditions: 1 μM, 24 hours, vs DMSO
Experimental: Sample Preparation: Approximately 10 millions of SW620 cells were treated with 1 μM P7 or 0.2% DMSO for 24 hours, respectively. Triplicate samples for each condition were provided as cell pellets. Cells were lysed in denaturing lysis buffer containing 8M urea, 20 mM HEPES (pH 8), 1 mM sodium orthovanadate, 2.5 mM sodium pyrophosphate and 1 mM β-glycerophosphate. A Bradford assay was carried out to determine the protein concentration. The proteins were reduced with 4.5 mM DTT and alkylated with 10 mM iodoacetamide. Trypsin digestion was carried out at room temperature overnight, and tryptic peptides were then acidified with 1% trifluoroacetic acid (TFA) and desalted with C18 Sep-Pak cartridges according to the manufacturer's procedure. TMT Labeling: 100 μg of peptide from each sample was labeled with TMTPro16plex reagent. The label incorporation was checked by LC-MS/MS and spectral counting. […] The samples were then pooled and lyophilized. High pH Reversed Phase Peptide Separation: After lyophilization, the peptides were re-dissolved in 250 μL of 20 mM ammonium formate (pH 10.0). […]
Data Analysis: MaxQuant (version 1.6.14.0)^54 was used to identify proteins and quantify the TMT reporter ion intensities with default settings. […] Samples were normalized within-plex using the Moffitt standard proteomics normalization pipeline iterative rank-order normalization (IRON).^55 Median sample was determined to be Plex_1_TMT-131, DMSO_2. […] Log2 ratios were calculated as the difference between average treatment—average DMSO. P-values were calculated using Welch's 2-sided T-tests, assuming unequal variance. Differentially abundant proteins were determined by having a log 2 ratio ≥2 standard deviations from the mean (+0.1089/−0.1131) and a P-value <0.05. […]

[1] = system: colorectal cancer patient-derived organoid models; experiment: H&E stain to assess morphology of CRC patient-derived organoid models; type: cell-based, human; conditions: 1 μM, 24 hours, vs DMSO
Experimental: To one or two confluent wells of organoids was added 1:5 diluted 500 μL of 5 units/mL dispase in HBSS (StemCell: 07913) and incubated at 37° C. in 5% CO2 atmosphere. Organoids were harvested and transferred to a 1.5 mL Eppendorf tube. The pellet was collected after centrifugation at 1500 rpm for 6 min, and washed with 1×PBS. The pellet was resuspended in 1 mL of 4% PFA and incubated at 4° C. overnight. The pellet was resuspended in 100 μL of 37° C. warmed histogel, centrifuged at 1000 rpm for 30 seconds to settle the organoids. The gel was allowed to polymerize at 4° C. for 10 minutes and then the plug was transferred to a 5 mL tube containing 2 mL 70% ethanol, and sent to the histology lab. Organoids were paraffin-embedded and subjected to serial sections for hematoxylin and eosin staining and immunohistochemistry following a common procedure at the histology lab. The slides/sections were cut at 4 micron thickness using a Leica RM2245 microtome. Charged slides were used.

COc1cc2c(N[C@H](C)c3cc(N)cc(C(F)(F)F)c3)nc(C)nc2cc1OCC(=O)Nc1cccc2c1CN(C1CCC(=O)NC1=O)C2=O (stereo partly drawn) [P7, 2-((4-(((R)-1-(3-amino-S-(trifluoromethyl)phenyl)ethyl)amino)-6-methoxy-2-methylquinazolin-7-yl)oxy)-N-(2-(2,6-dioxopiperidin-3-yl)-1-oxoisoindolin-4-yl)acetamide]
Change in SOS1 protein abundance (specificity of degradation) (SW620 cells): among the most degraded proteins
Degradation of GSPT1 and zinc finger transcription factors IKZF1/3 (SW620 cells): without cereblon-binding lenalidomide induced degradation
Upregulated proteins (ABCG1, SCAP) (SW620 cells): significantly upregulated
Morphology by H&E ([1]; MCC19990-010 PDO): significant necrosis and loss of cellular structures
Morphology by H&E ([1]; MCC19990-013 PDO): initial phase of gland structure alteration
